Source: US8598344B2, “CDKI pathway inhibitors and uses thereof” (Senex Biotechnology, priority 2009, dated 2013)

Key:
Assay in all cases: KinomeScan competition binding assay
Conditions in all cases: 10 μM compound
CIT = target: T1, CIT (Homo sapiens, UniProt O14578)
T1 construct: purchased KinomeScan, a division of Ambit Biosciences
Description: (§1) This similarity led us to test SNX14 for the ability to inhibit 285 kinases, using the services of KinaseProfiler of Millipore Corporation (285 kinases). […] The KINOMEscan assay has been described in detail in Fabian et al., Nat. Biotechnol. 23: 329 (2005) and Karaman et al., Nat. Biotechnol. 26: 127 (2008).
(§2) The KinomeScan assay is based on a competition binding assay that quantitatively measures the ability of a compound to compete with an immobilized, ATP site directed ligand. The assay is performed by combining three components: DNA-tagged kinase; immobilized ligand; and a test compound. The ability of the test compound to compete with the immobilized ligand is measured via quantitative PCR of the DNA tag. […] The CDKs tested by Millipore for inhibition with SNX14 included CDK1, CDK2, CDK3, CDK5, CDK7 and CDK9; none of these were inhibited to less than 49 percent of control (POC) activity. The CDKs tested by KinomeScan for the effect of Compound 1 included CDK2, CDK3, CDK4, CDK5, CDK7, CDK8, CDK9 and CDK19; aside from CDK8 and CDK19, the strongest inhibited CDK was CDK7 (33% POC binding). To determine the inhibition of which kinases correlates with the biological activity of SNX2-class compounds, we tested eight additional compounds of the SNX2 family, which gave different IC50 values in the cellular assays, for the ability to affect 24 kinases that were most susceptible to compound 1, through the services of KinomeScan. […] We have also determined the binding constant (Kd) for SNX14, compound 1, compound 20, compound 26, compound 43 and compound 14 in kinase assays for CDK8 and CDK19 (Table 1).

CSNK1G2 = target: T2, CSNK1G2 (Homo sapiens, UniProt P78368)
T2 construct: purchased KinomeScan, a division of Ambit Biosciences
Description: as §1, §2

CLK2 = target: T3, CLK2 (Homo sapiens, UniProt P49760)
T3 construct: purchased KinomeScan, a division of Ambit Biosciences
Description: as §1, §2

MEK5 = target: T4, MEK5 (Homo sapiens, UniProt Q13163)
T4 construct: purchased KinomeScan, a division of Ambit Biosciences
T4 sequence (Q13163 1-448): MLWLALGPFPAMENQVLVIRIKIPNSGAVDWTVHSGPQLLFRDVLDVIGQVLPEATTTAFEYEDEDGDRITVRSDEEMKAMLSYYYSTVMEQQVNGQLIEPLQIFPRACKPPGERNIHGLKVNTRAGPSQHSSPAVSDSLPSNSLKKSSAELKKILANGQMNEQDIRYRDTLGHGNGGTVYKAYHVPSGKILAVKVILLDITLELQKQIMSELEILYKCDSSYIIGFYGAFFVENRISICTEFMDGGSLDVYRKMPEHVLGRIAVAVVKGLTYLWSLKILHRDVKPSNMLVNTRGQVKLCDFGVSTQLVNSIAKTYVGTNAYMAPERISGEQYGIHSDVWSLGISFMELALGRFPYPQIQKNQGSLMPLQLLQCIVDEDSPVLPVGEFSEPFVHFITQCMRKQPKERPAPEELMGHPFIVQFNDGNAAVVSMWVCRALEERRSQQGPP
Description: as §1, §2

YSK4 = target: T5, YSK4 (Homo sapiens, UniProt Q56UN5)
T5 construct: purchased KinomeScan, a division of Ambit Biosciences
T5 sequence (Q56UN5 1-1328): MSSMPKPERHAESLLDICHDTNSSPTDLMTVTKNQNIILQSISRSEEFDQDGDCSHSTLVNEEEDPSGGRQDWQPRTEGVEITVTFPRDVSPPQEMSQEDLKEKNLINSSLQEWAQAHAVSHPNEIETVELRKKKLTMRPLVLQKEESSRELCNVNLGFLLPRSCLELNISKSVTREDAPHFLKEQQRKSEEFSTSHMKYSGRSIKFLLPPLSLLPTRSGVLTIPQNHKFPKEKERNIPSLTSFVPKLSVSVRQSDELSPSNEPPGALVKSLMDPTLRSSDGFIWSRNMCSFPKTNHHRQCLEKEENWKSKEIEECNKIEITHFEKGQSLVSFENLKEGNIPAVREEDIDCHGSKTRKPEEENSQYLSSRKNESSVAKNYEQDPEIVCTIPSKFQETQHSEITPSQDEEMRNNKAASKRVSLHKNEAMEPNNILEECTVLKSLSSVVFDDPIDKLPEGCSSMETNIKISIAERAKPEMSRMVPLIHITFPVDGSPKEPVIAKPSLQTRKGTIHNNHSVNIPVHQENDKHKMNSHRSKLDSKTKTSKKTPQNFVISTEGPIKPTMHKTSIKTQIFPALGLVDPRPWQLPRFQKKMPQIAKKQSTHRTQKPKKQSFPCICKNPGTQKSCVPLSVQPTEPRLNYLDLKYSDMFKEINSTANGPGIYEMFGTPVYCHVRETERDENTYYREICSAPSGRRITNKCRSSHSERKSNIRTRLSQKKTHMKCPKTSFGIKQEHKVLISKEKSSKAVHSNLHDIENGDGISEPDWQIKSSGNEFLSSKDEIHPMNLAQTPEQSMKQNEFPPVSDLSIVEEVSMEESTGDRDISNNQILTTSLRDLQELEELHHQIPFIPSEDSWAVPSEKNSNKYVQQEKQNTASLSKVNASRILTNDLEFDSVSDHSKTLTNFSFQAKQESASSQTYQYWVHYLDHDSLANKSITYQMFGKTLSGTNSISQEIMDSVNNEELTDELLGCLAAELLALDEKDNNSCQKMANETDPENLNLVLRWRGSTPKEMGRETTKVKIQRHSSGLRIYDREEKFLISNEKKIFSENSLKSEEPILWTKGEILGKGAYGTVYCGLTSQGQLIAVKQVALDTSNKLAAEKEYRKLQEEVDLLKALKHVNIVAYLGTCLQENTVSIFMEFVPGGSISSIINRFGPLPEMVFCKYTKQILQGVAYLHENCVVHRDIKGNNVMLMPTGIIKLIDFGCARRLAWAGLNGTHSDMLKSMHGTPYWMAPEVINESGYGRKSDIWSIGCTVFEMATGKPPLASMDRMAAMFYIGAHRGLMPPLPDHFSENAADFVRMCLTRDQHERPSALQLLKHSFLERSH
Description: as §1, §2

MEK3 = target: T6, MEK3 (Homo sapiens, UniProt P46734)
T6 construct: purchased KinomeScan, a division of Ambit Biosciences
T6 sequence (P46734 1-347): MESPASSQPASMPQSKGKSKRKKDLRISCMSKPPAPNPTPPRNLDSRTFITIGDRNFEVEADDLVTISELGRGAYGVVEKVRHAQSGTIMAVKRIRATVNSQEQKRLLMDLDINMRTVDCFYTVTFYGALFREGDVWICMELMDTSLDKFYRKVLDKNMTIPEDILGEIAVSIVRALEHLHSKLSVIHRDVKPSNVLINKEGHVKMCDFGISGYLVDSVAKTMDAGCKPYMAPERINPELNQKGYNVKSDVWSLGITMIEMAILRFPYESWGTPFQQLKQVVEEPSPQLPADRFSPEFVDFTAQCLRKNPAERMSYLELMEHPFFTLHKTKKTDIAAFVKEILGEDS
Description: as §1, §2

T1 sequence (O14578 whole entry): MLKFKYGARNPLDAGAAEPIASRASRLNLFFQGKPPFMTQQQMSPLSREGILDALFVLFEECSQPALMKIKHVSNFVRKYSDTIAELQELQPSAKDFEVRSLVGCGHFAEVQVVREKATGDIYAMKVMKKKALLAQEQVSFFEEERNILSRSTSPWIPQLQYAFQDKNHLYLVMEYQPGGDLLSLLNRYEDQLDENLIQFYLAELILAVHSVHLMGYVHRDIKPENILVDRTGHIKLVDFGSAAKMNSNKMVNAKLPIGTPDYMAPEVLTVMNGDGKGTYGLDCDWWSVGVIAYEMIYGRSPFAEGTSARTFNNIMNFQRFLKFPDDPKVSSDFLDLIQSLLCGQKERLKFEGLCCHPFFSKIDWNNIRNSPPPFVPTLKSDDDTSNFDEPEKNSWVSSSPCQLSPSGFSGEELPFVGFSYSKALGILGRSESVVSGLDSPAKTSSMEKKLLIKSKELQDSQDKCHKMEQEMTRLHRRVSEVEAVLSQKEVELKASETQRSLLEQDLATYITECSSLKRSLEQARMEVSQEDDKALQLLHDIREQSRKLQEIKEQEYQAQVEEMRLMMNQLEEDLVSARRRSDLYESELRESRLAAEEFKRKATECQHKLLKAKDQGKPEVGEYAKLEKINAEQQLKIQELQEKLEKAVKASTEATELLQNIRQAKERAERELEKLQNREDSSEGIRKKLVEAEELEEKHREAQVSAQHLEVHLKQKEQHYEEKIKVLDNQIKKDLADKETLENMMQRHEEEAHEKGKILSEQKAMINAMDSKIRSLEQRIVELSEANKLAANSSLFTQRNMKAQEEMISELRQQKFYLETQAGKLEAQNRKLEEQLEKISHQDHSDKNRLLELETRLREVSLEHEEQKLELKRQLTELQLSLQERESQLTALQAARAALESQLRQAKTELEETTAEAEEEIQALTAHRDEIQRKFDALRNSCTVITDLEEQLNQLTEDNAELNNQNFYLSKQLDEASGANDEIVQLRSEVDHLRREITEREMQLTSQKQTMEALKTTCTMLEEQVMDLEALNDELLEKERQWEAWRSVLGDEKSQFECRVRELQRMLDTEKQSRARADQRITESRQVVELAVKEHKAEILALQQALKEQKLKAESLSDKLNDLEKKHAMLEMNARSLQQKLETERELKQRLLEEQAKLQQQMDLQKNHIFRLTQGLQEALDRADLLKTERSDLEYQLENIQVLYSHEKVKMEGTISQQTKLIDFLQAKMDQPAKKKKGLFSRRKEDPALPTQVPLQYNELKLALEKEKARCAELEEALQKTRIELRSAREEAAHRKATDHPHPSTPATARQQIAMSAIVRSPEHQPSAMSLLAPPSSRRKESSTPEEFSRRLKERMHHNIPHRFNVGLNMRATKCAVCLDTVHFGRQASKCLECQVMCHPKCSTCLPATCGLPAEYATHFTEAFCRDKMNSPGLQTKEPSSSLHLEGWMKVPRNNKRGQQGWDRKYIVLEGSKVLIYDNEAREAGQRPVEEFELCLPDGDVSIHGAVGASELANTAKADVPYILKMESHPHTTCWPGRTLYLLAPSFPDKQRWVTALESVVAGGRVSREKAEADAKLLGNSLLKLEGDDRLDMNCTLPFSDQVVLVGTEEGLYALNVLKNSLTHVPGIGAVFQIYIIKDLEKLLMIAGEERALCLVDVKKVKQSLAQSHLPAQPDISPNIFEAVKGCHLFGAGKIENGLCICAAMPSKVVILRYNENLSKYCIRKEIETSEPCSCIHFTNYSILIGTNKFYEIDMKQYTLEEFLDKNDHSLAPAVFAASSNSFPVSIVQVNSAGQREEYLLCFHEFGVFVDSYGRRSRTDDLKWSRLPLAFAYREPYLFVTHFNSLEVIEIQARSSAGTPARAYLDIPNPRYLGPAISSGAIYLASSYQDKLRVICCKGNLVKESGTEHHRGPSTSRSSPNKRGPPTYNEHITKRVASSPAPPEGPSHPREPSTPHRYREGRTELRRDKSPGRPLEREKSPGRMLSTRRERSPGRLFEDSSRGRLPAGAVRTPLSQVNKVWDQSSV
T3 sequence (P49760 whole entry): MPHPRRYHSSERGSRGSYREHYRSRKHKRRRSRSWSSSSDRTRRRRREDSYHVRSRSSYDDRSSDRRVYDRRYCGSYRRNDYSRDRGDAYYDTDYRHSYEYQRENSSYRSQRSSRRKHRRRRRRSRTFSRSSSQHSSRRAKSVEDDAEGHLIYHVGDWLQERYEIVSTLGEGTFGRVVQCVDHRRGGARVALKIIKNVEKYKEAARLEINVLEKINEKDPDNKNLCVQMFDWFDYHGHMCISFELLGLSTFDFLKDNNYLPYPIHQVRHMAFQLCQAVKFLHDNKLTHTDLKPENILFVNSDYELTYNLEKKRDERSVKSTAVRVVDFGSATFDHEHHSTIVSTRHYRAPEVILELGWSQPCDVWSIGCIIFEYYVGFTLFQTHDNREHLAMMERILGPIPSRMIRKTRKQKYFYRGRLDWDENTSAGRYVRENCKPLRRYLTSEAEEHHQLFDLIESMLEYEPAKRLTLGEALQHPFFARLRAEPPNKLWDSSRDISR
T2 sequence (P78368 whole entry): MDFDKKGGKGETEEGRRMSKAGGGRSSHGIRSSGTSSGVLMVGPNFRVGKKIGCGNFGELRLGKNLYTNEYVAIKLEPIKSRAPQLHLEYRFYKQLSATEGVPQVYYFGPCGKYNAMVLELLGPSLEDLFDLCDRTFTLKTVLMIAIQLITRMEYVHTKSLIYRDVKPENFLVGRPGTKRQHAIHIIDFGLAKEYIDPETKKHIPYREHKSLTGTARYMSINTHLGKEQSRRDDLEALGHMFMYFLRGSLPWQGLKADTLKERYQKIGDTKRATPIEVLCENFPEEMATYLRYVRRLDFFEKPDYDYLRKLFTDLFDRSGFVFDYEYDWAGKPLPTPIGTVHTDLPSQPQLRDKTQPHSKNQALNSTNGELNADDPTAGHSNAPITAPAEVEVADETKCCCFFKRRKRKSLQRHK

Structure (SMILES) | POC ligand binding, CIT (CIT) [POC] | POC ligand binding, CSNK1G2 (CSNK1G2) [POC] | POC ligand binding, CLK2 (CLK2) [POC] | POC ligand binding, MEK5 (MEK5) [POC] | POC ligand binding, YSK4 (YSK4) [POC] | POC ligand binding, MEK3 (MEK3) [POC] | POC ligand binding, CIT (CIT; 10 µM) [POC] | POC ligand binding, CSNK1G2 (CSNK1G2; 10 µM) [POC] | POC ligand binding, CLK2 (CLK2; 10 µM) [POC] | POC ligand binding, MEK5 (MEK5; 10 µM) [POC] | POC ligand binding, YSK4 (YSK4; 10 µM) [POC] | POC ligand binding, MEK3 (MEK3; 10 µM) [POC]
N#Cc1ccc2ncnc(NCCc3ccccc3)c2c1 [compound 1] | 15 | 16 | 3.8 | 18 | 5.4 | 18 | – | – | – | – | – | –
N#Cc1ccc2ncnc(NCc3ccc4ccccc4c3)c2c1 [compound 14] | – | – | – | – | – | – | 9.8 | 43 | 24 | 13 | 21 | 29
N#Cc1ccc2ncnc(NCc3ccc(Cl)cc3)c2c1 [compound 20] | 7.9 | 62 | 16 | 62 | 31 | 76 | – | – | – | – | – | –
N#Cc1ccc2ncnc(NCCc3ccc4ccccc4c3)c2c1 [compound 26] | 40 | 57 | 58 | 61 | 44 | 78 | – | – | – | – | – | –
N#Cc1ccc2ncnc(NCc3ccc4ccccc4c3)c2c1 [compound 43] | – | – | – | – | – | – | 14 | 53 | 9.6 | 41 | 29 | 64
COc1ccc2ncnc(NCCc3ccccc3)c2c1 [compound 44] | 18 | 80 | 34 | 59 | 39 | 72 | – | – | – | – | – | –
CC(C)CNc1ncnc2ccc(C(F)(F)F)cc12 [compound 45] | 50 | 53 | 8.6 | 46 | 41 | 71 | – | – | – | – | – | –
CCCNc1ncnc2ccc(N3CCOCC3)cc12 [compound 46] | 86 | 55 | 66 | 17 | 91 | 100 | – | – | – | – | – | –
